Assay results: US20230014181A1, “CULTURE SYSTEM AND METHODS FOR IMPROVED MODELING OF NEUROLOGICAL CONDITIONS” (Genentech, Inc., priority 2021, published 2023)
Where a name gives a salt, the structure may show the parent alone. Read-outs that look alike come from different tables or passages of the source.

Tested on: human iPSC neurons, astrocytes and microglia treated with 5 μM sAβ42s
Assay: Focused small molecule screen, triple culture (neuron, astrocyte, microglia), rescue from sAβ42s toxicity
Type: cell-based
Conditions: for percent rescue from sAβ42s toxicity at 50 µM / percent rescue from sAβ42s toxicity at 0.78 µM / percent rescue from sAβ42s toxicity at 3.13 µM / percent rescue from sAβ42s toxicity at 12.5 µM: Homo sapiens, iPSC
Protocol: FIGS. 11A-11D show synapse % rescue versus MAP2% rescue (FIGS. 11A-11B) and beta III tubulin % rescue versus MAP2% rescue (FIGS. 11C-11D), in neurons and astrocytes (FIGS. 11A and 11C) or neurons, astrocytes, and microglia (FIGS. 11B and 11D) treated with 5 μM sAβ42s and small molecules from a focused screen of known neuroprotective agents at multiple concentrations (50 μM, 25 μM, 12.5 μM and 6.25 μM (double culture), 50 μM, 12.5 μM, 3.1 μM and 0.78 μM (triple culture). Small molecules that prevented toxicity in dendrites (MAP2), synapses (Synapsin 1/2), cell count (CUX2), or axons ([…]) at or above 30% were considered hits (red dotted line).
Frozen cells were thawed and immediately seeded at a density of 8,000 cells/well of a 384-well plate onto 8-week old neuron-astrocyte co-culture in Microglia media (BrainPhys™ neuronal media (Stem Cell Technologies) supplemented with 1× B27 with vitamin A, 1×N2 Plus Media Supplement (R&D Systems), 20 ng/mL BDNF, 20 ng/mL GDNF, 1 mM creatine, 200 nM L-ascorbic acid, 1 μg/mL mouse laminin, 0.5 mM GlutaMAX™ (Thermofisher), 0.5× penicillin-streptomycin, 1× normocin, 5 ng/mL TGF-β, 100 ng/mL human IL-34, 1.5 μg/mL cholesterol, 1 ng/mL gondoic acid, 100 ng/mL oleic acid, 460 μM thioglycerol, 1× insulin-transferrin-selenium, 25 ng/mL rhM-CSF, 5.4 μg/mL human insulin solution).
In double (neuron, astrocyte) and triple (neuron, astrocyte, microglia) cultures, each small molecule listed in Table 1 was tested in the AD model paradigm at up to four concentrations. Molecules that characterized ≥30% rescue in any of the four measurements of dendrites area (MAP2), synapses count (synapsin 1/2), or cell count (CUX2), or axon area (Beta III Tubulin; “BT3”)) were classified as hits (FIGS. 11A-11D, Table 2, and Table 3).

[1] = 50.00 μM compound, read-out: % B3T rescue
[2] = 50.00 μM compound, read-out: % MAP2 rescue
[3] = 50.00 μM compound, read-out: % Synapse rescue
[4] = 0.78 μM compound, read-out: % B3T rescue
[5] = 0.78 μM compound, read-out: % MAP2 rescue
[6] = 0.78 μM compound, read-out: % Synapse rescue
[7] = 3.13 μM compound, read-out: % B3T rescue
[8] = 3.13 μM compound, read-out: % MAP2 rescue
[9] = 3.13 μM compound, read-out: % Synapse rescue
[10] = 12.50 μM compound, read-out: % B3T rescue
[11] = 12.50 μM compound, read-out: % MAP2 rescue
[12] = 12.50 μM compound, read-out: % Synapse rescue

Molecule	% B3T rescue (12.50 μM compound) [%]	% MAP2 rescue (12.50 μM compound) [%]	% Synapse rescue (12.50 μM compound) [%]	% B3T rescue (50.00 μM compound) [%]	% MAP2 rescue (50.00 μM compound) [%]	% Synapse rescue (50.00 μM compound) [%]	% B3T rescue (3.13 μM compound) [%]	% MAP2 rescue (3.13 μM compound) [%]	% Synapse rescue (3.13 μM compound) [%]	also measured
Oc1cc(O)c2c(c1)O[C@H](c1ccc(O)c(O)c1)[C@H](O)C2 [Epicatechin]	–	–	–	–	–	–	–	–	–	percent rescue from sAβ42s toxicity at 50 µM [1]: 30%; percent rescue from sAβ42s toxicity at 50 µM [2]: 28%; percent rescue from sAβ42s toxicity at 50 µM [3]: 20%
O=C(NOC[C@H](O)CO)c1ccc(F)c(F)c1Nc1ccc(I)cc1F [PD0325901]	–	–	–	–	–	–	–	–	–	percent rescue from sAβ42s toxicity at 0.78 µM [4]: 48%; percent rescue from sAβ42s toxicity at 0.78 µM [5]: 19%; percent rescue from sAβ42s toxicity at 0.78 µM [6]: 15%; percent rescue from sAβ42s toxicity at 3.13 µM [7]: 52%; percent rescue from sAβ42s toxicity at 3.13 µM [8]: 23%; percent rescue from sAβ42s toxicity at 3.13 µM [9]: 21%; percent rescue from sAβ42s toxicity at 12.5 µM [10]: 43%; percent rescue from sAβ42s toxicity at 12.5 µM [11]: 8%; percent rescue from sAβ42s toxicity at 12.5 µM [12]: 8%; percent rescue from sAβ42s toxicity at 50 µM [1]: 59%; percent rescue from sAβ42s toxicity at 50 µM [2]: 27%; percent rescue from sAβ42s toxicity at 50 µM [3]: 27%
CCCn1c(C)c(C(=O)c2cccc3ccccc23)c2ccccc21 [JWH 015]	60	50	43	42	38	26	–	–	–	–
Cc1[nH]c(/C=C2\C(=O)Nc3ccccc32)c(C)c1CCC(=O)O [SU 6668]	–	–	–	77	80	75	34	31	26	–
Cn1cnc2c(NCc3ccccc3)nc(NCCO)nc21 [Olomoucine]	–	–	–	–	–	–	–	–	–	percent rescue from sAβ42s toxicity at 50 µM [1]: 69%; percent rescue from sAβ42s toxicity at 50 µM [2]: -8%; percent rescue from sAβ42s toxicity at 50 µM [3]: -15%
Oc1cc2c(cc1O)CN(C(=S)NCCc1ccc(Cl)cc1)CCC2 [Capsazepine]	–	–	–	–	–	–	–	–	–	percent rescue from sAβ42s toxicity at 12.5 µM [10]: 50%; percent rescue from sAβ42s toxicity at 12.5 µM [11]: 44%; percent rescue from sAβ42s toxicity at 12.5 µM [12]: 44%
CC(/C=C/C(=O)NO)=C\[C@@H](C)C(=O)c1ccc(N(C)C)cc1 [Trichostatin A]	31	−18	2	41	−13	1	–	–	–	–
Cc1c[nH]c(-c2cnc(NCCNc3ccc(C#N)cn3)nc2-c2ccc(Cl)cc2Cl)n1 [CHIR 99021 trihydrochloride]	–	–	–	–	–	–	–	–	–	percent rescue from sAβ42s toxicity at 50 µM [1]: 66%; percent rescue from sAβ42s toxicity at 50 µM [2]: 58%; percent rescue from sAβ42s toxicity at 50 µM [3]: 46%
O=C1Nc2ccccc2/C1=C1/Nc2ccccc2/C1=N\O [Indinibin-3′-monoxime]	74	37	44	49	23	34	31	6	9	–
CCCCCCCCCCCCCCCCCC(=O)NCCc1ccc(O)c(O)c1 [STEARDA]	33	24	21	–	–	–	33	28	24	% B3T rescue (0.78 μM compound): 27%; % MAP2 rescue (0.78 μM compound): 30%; % Synapse rescue (0.78 μM compound): 24%
CC(C)CCC[C@@H](C)[C@H]1CC[C@H]2[C@@H]3CCC4=CC(=NO)CC[C@]4(C)[C@H]3CC[C@]12C [TRO 19622]	–	–	–	–	–	–	–	–	–	percent rescue from sAβ42s toxicity at 3.13 µM [7]: 34%; percent rescue from sAβ42s toxicity at 3.13 µM [8]: -25%; percent rescue from sAβ42s toxicity at 3.13 µM [9]: -10%; percent rescue from sAβ42s toxicity at 12.5 µM [10]: 33%; percent rescue from sAβ42s toxicity at 12.5 µM [11]: -36%; percent rescue from sAβ42s toxicity at 12.5 µM [12]: -13%
O=C(COc1ccc(Cl)cc1)NC1CCC(NC(=O)COc2ccc(Cl)cc2)CC1 (stereo not drawn) [ISR Inhibitor, ISRIB]	–	–	–	22	31	21	–	–	–	–
C/C=C1\C(=O)C[C@H]2[C@@H]3CCC4=CC(=O)CC[C@]4(C)[C@H]3CC[C@]12C [Guggulsterone]	–	–	–	–	–	–	–	–	–	percent rescue from sAβ42s toxicity at 50 µM [1]: 36%; percent rescue from sAβ42s toxicity at 50 µM [2]: 19%; percent rescue from sAβ42s toxicity at 50 µM [3]: 17%
OC(CNc1ccccc1)Cn1c2ccc(Br)cc2c2cc(Br)ccc21 (stereo not drawn) [P7C3]	–	–	–	43	−8	2	30	2	3	–
Oc1ccc(C=Cc2cc(O)cc(O)c2)cc1 [Resveratrol]	–	–	–	–	–	–	–	–	–	percent rescue from sAβ42s toxicity at 0.78 µM [4]: 27%; percent rescue from sAβ42s toxicity at 0.78 µM [5]: 33%; percent rescue from sAβ42s toxicity at 0.78 µM [6]: 24%; percent rescue from sAβ42s toxicity at 3.13 µM [7]: 30%; percent rescue from sAβ42s toxicity at 3.13 µM [8]: 33%; percent rescue from sAβ42s toxicity at 3.13 µM [9]: 27%; percent rescue from sAβ42s toxicity at 12.5 µM [10]: 54%; percent rescue from sAβ42s toxicity at 12.5 µM [11]: 57%; percent rescue from sAβ42s toxicity at 12.5 µM [12]: 49%; percent rescue from sAβ42s toxicity at 50 µM [1]: 78%; percent rescue from sAβ42s toxicity at 50 µM [2]: 84%; percent rescue from sAβ42s toxicity at 50 µM [3]: 78%
CC(C)[C@H](CO)Nc1nc(Nc2cccc(Cl)c2)c2ncn(C(C)C)c2n1 [Purvalanol A]	–	–	–	–	–	–	33	15	24	–
COc1cc([C@@H]2c3cc4c(cc3[C@@H](O[C@@H]3O[C@@H]5CO[C@@H](c6cccs6)O[C@H]5[C@H](O)[C@H]3O)[C@H]3COC(=O)[C@H]23)OCO4)cc(OC)c1O [Teniposide]	–	–	–	–	–	–	–	–	–	percent rescue from sAβ42s toxicity at 0.78 µM [4]: 35%; percent rescue from sAβ42s toxicity at 0.78 µM [5]: -7%; percent rescue from sAβ42s toxicity at 0.78 µM [6]: 1%; percent rescue from sAβ42s toxicity at 3.13 µM [7]: 42%; percent rescue from sAβ42s toxicity at 3.13 µM [8]: -10%; percent rescue from sAβ42s toxicity at 3.13 µM [9]: 5%; percent rescue from sAβ42s toxicity at 12.5 µM [10]: 50%; percent rescue from sAβ42s toxicity at 12.5 µM [11]: -17%; percent rescue from sAβ42s toxicity at 12.5 µM [12]: 3%; percent rescue from sAβ42s toxicity at 50 µM [1]: 52%; percent rescue from sAβ42s toxicity at 50 µM [2]: -19%; percent rescue from sAβ42s toxicity at 50 µM [3]: 3%
CCOC(=O)c1ccc(N(C)c2csc(-c3ccccc3)n2)cc1 [Neuropathiazol]	35	44	42	35	27	28	–	–	–	–
Cc1c(C)c(NCC(=O)N(C)C2CCN(Cc3ccc(C(N)=O)cc3)CC2)c(C)c(C)c1N [sun11602]	43	19	15	47	14	11	33	10	11	–
Cn1cc(C2=C(c3ccc(Cl)cc3Cl)C(=O)NC2=O)c2ccccc21 [SB216763]	–	–	–	46	−24	−15	–	–	–	–
COc1ccc(S(=O)(=O)NCCCC(=O)Nc2ccc(Sc3ccc(N)cc3)cc2)cc1 [BI-6C9]	–	–	–	65	58	55	–	–	–	–
Lycorine hydrochloride	83	93	77	79	88	75	77	99	80	% B3T rescue (0.78 μM compound): 37%; % MAP2 rescue (0.78 μM compound): 57%; % Synapse rescue (0.78 μM compound): 43%
C=CC[C@@H]1/C=C(\C)C[C@H](C)C[C@H](OC)[C@H]2O[C@@](O)(C(=O)C(=O)N3CCCC[C@H]3C(=O)O[C@H](/C(C)=C/[C@@H]3CC[C@@H](O)[C@H](OC)C3)[C@H](C)[C@@H](O)CC1=O)[C@H](C)C[C@@H]2OC [FK 506]	–	–	–	–	–	–	–	–	–	percent rescue from sAβ42s toxicity at 12.5 µM [10]: 52%; percent rescue from sAβ42s toxicity at 12.5 µM [11]: 34%; percent rescue from sAβ42s toxicity at 12.5 µM [12]: 34%
C=C(c1ccc(C(=O)O)c(F)c1)c1cc2c(cc1C)C(C)(C)CCC2(C)C [Fluorobexarotene]	33	40	33	–	–	–	50	43	34	–
Cn1sc(=O)n(Cc2ccccc2)c1=O [TDZD-8]	–	–	–	54	−29	−8	–	–	–	–
Cc1cc(C(=O)CN2CCCC2)c(C)n1-c1ccc(F)cc1 [IU1]	41	32	23	–	–	–	–	–	–	–
